SMILES strings stand for the structures. ≈ marks a conversion by molar mass, not a printed value.

In patent US9988348B1, “Synthesis and antimicrobial use of a trithiocarbonate derivative” (KING SAUD UNIVERSITY, priority 2017, dated 2018) one finds MIC data, which are given here for one molecule.

Assay in all cases: microdilution assay, minimal inhibitory concentration
Format in all cases: cell-based
(Dilution methods test growth across graded concentrations, often in twofold steps.)

In test [1] the test system is Salmonella typhimurium ATCC 14028. The settings on record: Salmonella enterica; Sa. typhimurium; water-soluble form. How it is done:
(§1) To evaluate antimicrobial activity of the compound 4, synthesized in our laboratory as novel anti-bacterial and anti-fungal agents, the inhibition zone diameter (mm) and the minimal inhibitory concentration were determined according to (Andrews 2001; Hudzicki 2009). The test carried out on several clinical microorganisms included Gram positive bacteria (Staphylococcus aureus ATCC and Streptococcus mutans ATCC 35668), Gram negative bacteria (Escherichia coli ATCC 25922, Salmonella typhimurium ATCC 14028 and Neisseria meningitides ATCC 1302); yeasts (Candid albicans ATCC 60193, Cryptococcus neoformans Wild strain and Candida parapsilosus ATCC 22019) and molds (Aspergillus fumigatus AUMC 8794, Penicillum chrysogenum AUMC 9476 and Fusarium sp.)
(§2) The minimal inhibitory concentration (MIC) of compound 4 (water-soluble form) was determined by a microdilution assay, using Mueller-Hinton broth (for bacteria) and Potato dextrose broth (for fungi). The compound 4 was dissolved in sterile culture broth (2 mg/mL). Two fold serial dilutions were carried out to obtain concentrations ranging from 2 to 0.008 mg/mL. 95 μL of each dilution were added in 96-well plates, then each well was inoculated with 5 μL of inoculation microbial suspension (5×10^8 colony form unit (CFU)/ml). The plates were incubated at suitable conditions according to tested microorganism. After the incubation, the microbial growth was detected in the wells by p-iodonitrotetrazolium violet (Sigma, USA) reagent. Each well received 20 μL of the reagent (0.5 mg/ml) and was then incubated at 37±1° C. for 30 min. A violet color indicated microbial growth in the well. The minimal inhibitory concentration (mg/ml) of the compound 4 was estimated as the lowest concentration that inhibited microbial growth.

Another test deals with Fusarium sp. The settings on record: water-soluble form. How it is done:
as §1, §2

Test [2] relates to Penicillum chrysogenum AUMC 9476. Conditions: P. chrysoginum; water-soluble form. The procedure:
as §1, §2

The subject of test [3] is Candida parapsilosus ATCC 22019. Conditions: ATCC22019, C. parasilosus, water-soluble form. How it is done:
as §1, §2

Test [4] has as its system Streptococcus mutans ATCC 35668. The settings on record: ATCC35668, S. mutans, water-soluble form. The procedure:
as §1, §2

The test system of test [5] is Staphylococcus aureus ATCC. The settings on record: S. aureus, water-soluble form. How it is done:
as §1, §2

Test [6] deals with Escherichia coli ATCC 25922. Conditions: ATCC25922, E. coli, water-soluble form. The procedure:
as §1, §2

In test [7] the test system is Neisseria meningitides ATCC 1302. Conditions: ATCC1302, N. meningitides, water-soluble form. The procedure: as §1, §2
In test [8] the test system is Aspergillus fumigatus AUMC 8794. The settings on record: AUMC8794, A. fumigatus, water-soluble form. How it is done: as §1, §2
The subject of test [9] is Cryptococcus neoformans Wild strain. The settings on record: C. neoformasn, water-soluble form. The procedure:
as §1, §2

In test [10] the test system is Candid albicans ATCC 60193. Conditions: Candida albicans, ATCC60193; C. albicans; water-soluble form. The procedure:
as §1, §2

The term MIC denotes the least concentration at which growth counts as inhibited. Read a low MIC as greater potency. For the molecule `CCOC(=O)CSC(=S)SCC(=O)OCC` [Compound 4, diethyl 2,2′-(thiocarbonylbis(sulfanediyl))diacetate], the MIC was 2000 µg/mL (≈ 7080 µM) in test [1]; 31.2 µg/mL (≈ 111 µM) against Fusarium sp.; 31.2 µg/mL (≈ 111 µM) in test [2]; 50 µg/mL (≈ 177 µM) in test [3]; 62.5 µg/mL (≈ 221 µM) in test [4]; 2000 µg/mL (≈ 7080 µM) in [5]. The minimum inhibitory concentration (MIC) in test [6] amounted to 1000 µg/mL (≈ 3540 µM); in test [7] it was 62.5 µg/mL (≈ 221 µM); in [8] it was 31.2 µg/mL (≈ 111 µM); in [9], 31.2 µg/mL (≈ 111 µM); in test [10] it was 62.5 µg/mL (≈ 221 µM).
